“Also recorded” adds a separate entry of the source. Where two headings read alike, the source gives them in different places.
How the values were obtained:
[1] = target: Neuraminidase from Clostridium perfringens (C. welchii) (EC 3.2.1.18); assay type: biochemical; conditions: for IC50: pH 5.0, 37 °C, read-out: IC50, bacterial neuraminidase
[2] = target: Neuraminidase from Clostridium perfringens (bacterial neuraminidase); assay type: biochemical; conditions: for Ki: read-out: Ki (inhibition constant); for Kik/Kiv: Yang's method
[3] = tested on: Neuraminidase from Clostridium perfringens (bacterial neuraminidase); assay type: binding
[4] = concentration that caused 50% enzyme activity loss, three repeats
[5] = Lineweaver–Burk and Dixon plots

| Compound | IC50 [1, 4] [µM] | Ki ([2]; Dixon plots) [µM] | Kinetic Mode [2, 5] | KA (binding constant) ([3]; fluorescence quenching, pH 5.0) [L/mol] | KSV (Stern–Volmer constant) ([3]; fluorescence quenching, pH 5.0) [L/mol] | also measured |
| --- | --- | --- | --- | --- | --- | --- |
| COc1ccc(-c2oc3c(c(O)cc4oc(C(C)(C)OC)cc43)c(=O)c2OC2OC(C)C(O)C(O)C2O)cc1 [Compound 7, 5-hydroxy-2-(4-methoxyphenyl)-8-(2-methoxypropan-2-yl)-3-(((2S,3R,4R,5R,6S)-3,4,5-trihydroxy-6-methyltetra-hydro-2H-pyran-2-yl)oxy)-4H-furo[2-3-h]chromen-4-one] | 2.9 ± 0.7 | 2.73 | Noncompetitive | 785100 | 216560 | times more effective compared with compound 8 ([1]; methoxy group (7) versus hydroxyl group (8)): 5 times |
| COc1ccc(-c2oc3c(c(O)cc4oc(C(C)(C)O)cc43)c(=O)c2O[C@@H]2O[C@@H](C)[C@H](O)[C@@H](O)[C@H]2O)cc1 [Compound 8, 5-hydroxy-8-(2-hydroxypropan-2-yl)-2-(4-methoxyphenyl)-3-(((2S,3R,4R,5R,6S)-3,4,5-trihydroxy-6-methyl-tetrahydro-2H-pyran-2-yl)oxy)-4H-furo[2,3-h]chromen-4-one] | 16.7 ± 0.9 | 16.4 | Noncompetitive | 741600 | 111200 |  |
| CC(C)=CCc1cc(-c2cc(=O)c3c(O)cc(O)c(CC=C(C)C)c3o2)ccc1O [Compound 3, 5,7,4′-trihydroxy-8,3′-diprenyl flavone] | 12.6 ± 0.2 | 12.2 | Noncompetitive | 760400 | 134420 |  |
| CC(C)=CCc1cc(-c2cc(=O)c3c(O)cc(O)c(CC=C(C)C)c3o2)cc(O)c1O [Compound 1, epimedokoreanin B] | 0.17 ± 0.02 | 0.15 | Noncompetitive | 966600 | 411040 | times more effective than luteolin (mother skeleton) ([1]; ratio of IC50 values): 500 times; Kinetic Mode ([2]; Lineweaver–Burk and Dixon plots, listed as compound 1): noncompetitive inhibition; also recorded: noncompetitive behavior; Kik/Kiv ([2]; [I] 0.12 µM): 16.0415; Kik/Kiv ([2]; [I] 0.24 µM): 6.6846; Kik/Kiv ([2]; [I] 0.48 µM): 7.7610; reversibility of inhibition ([2]; initial velocity versus enzyme concentration plots): reversible inhibitor |
| O=c1cc(-c2ccc(O)cc2)oc2cc(O)cc(O)c12 [Apigenin, apigenin, reference compound] | 108 ± 1.8 |  |  | 514200 |  |  |
| CC(C)=CCc1c(O)cc(O)c2c1OC(c1ccc(O)cc1)C(O)C2=O (stereo not shown) [Compound 2, 8-(γ,γ-dimethylallyl)-5,7,4′-trihydroxydihydroflavonol] | 0.68 ± 0.03 | 0.73 | Noncompetitive | 792300 | 236360 | times more potent in comparison with dihydrokaempferol ([1]; ratio of IC50 values): 700 times |
| icariside II [Compound 4] |  |  |  |  |  | IC50 [1]: 20 ± 0.5 µM; Kinetic Mode [2]: Noncompetitive (21.1 ± 0.8); Ki [2]: 21.1 µM; KA (binding constant) ([3]; pH 5): 733500 L/mol; KSV (Stern–Volmer constant) ([3]; pH 5): 95690 L/mol |
| COc1ccc(-c2oc3c(CC=C(C)C)c(O[C@@H]4O[C@H](CO)[C@@H](O)[C@H](O)[C@H]4O)cc(O)c3c(=O)c2O[C@@H]2O[C@@H](C)[C@H](O)[C@@H](O)[C@H]2O)cc1 [Compound 5, icariin] | 57.8 ± 1.1 | 36.8 | mixed type inhibitor; also recorded: mixed-type behavior; also recorded: Mixed type I | 584400 | 60400 | Kik/Kiv ([2]; [I] 35.0 µM): 3.6688; Kik/Kiv ([2]; [I] 70.0 µM): 2.3384; Kik/Kiv ([2]; [I] 140.0 µM): 2.0207 |
| COc1ccc(-c2oc3c(CC=C(C)C)c(O)cc(O)c3c(=O)c2O[C@@H]2O[C@@H](C)[C@H](O)[C@@H](O)[C@H]2O[C@@H]2OC[C@@H](O)[C@H](O)[C@H]2O)cc1 [Compound 6, sagittatoside B] | 106 ± 3.2 | 103 | Noncompetitive | 505700 | 56080 |  |
| O=C1c2c(O)cc(O)cc2O[C@H](c2ccc(O)cc2)[C@H]1O [Dihydrokaempferol, dihydrokaempferol, reference compound] | 500.4 ± 3.8 |  |  | 299800 | 24790 | fluorescence quenching (FQ) effect [3]: insignificant |
| O=c1cc(-c2ccc(O)c(O)c2)oc2cc(O)cc(O)c12 [Luteolin, luteolin, reference compound] | 85.6 ± 2.1 |  |  | 557800 | 56140 |  |
| O=c1c(O)c(-c2ccc(O)c(O)c2)oc2cc(O)cc(O)c12 [Quercetin, reference compound] | 20.2 ± 0.8 |  |  |  |  |  |

Source: article PMC6359343 (Molecules, 2019)
